In paper PMC10850145, “Hormonal steroids induce multidrug resistance and stress response genes in Neisseria gonorrhoeae by binding to MtrR” (Nature Communications, 2024):
“And” between values parts separate entries of the source, which are not always exact repeats. Equal values may be shown once.

Assays:
[1] = target: T1, MtrR binding to rpoH operator (27mer) (Neisseria gonorrhoeae, UniProt P39897); test: Fluorescence polarization based DNA binding assay, rpoH operator; conditions: rpoH 27mer + 125 µM steroid
T1 construct: Hexa-histidine tag with TEV protease cleavage site (N, cleaved yes); made in house; host or cells: E. coli Rosetta Gami B(DE3) pLysS
T1 sequence (P39897 whole entry): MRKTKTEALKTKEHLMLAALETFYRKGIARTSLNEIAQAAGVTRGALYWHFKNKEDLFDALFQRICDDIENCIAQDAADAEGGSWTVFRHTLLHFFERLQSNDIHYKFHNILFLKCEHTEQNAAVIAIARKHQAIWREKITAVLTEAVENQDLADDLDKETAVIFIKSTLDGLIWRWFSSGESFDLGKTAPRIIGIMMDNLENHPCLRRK
Method: (§1) Fluorescence polarization based-DNA binding data were collected using a Panvera Beacon 2000 fluorescence polarization system (Invitrogen) and analyzed with Prism (Graphpad Software 9, 10). Purified MtrR was buffer exchanged into “DNA” binding buffer (150 mM NaCl, 20 mM Tris-HCl pH 7.5, 2.5% glycerol, 1 mM TCEP). […] The reported oligoduplexes containing the rpoH and mtrCDE binding site differ in lengths, 27mer and 21mer, respectively[17],[21]. […] BSA and dI-dC are included as carriers and to control for nonspecific DNA binding. Samples were excited at 490 nm and polarized emissions measured at 530 nm. Controls were run with no protein (DNA ± methanol, hormonal steroids) to ensure that millipolarization values were not affected by experimental conditions alone. The binding affinity of protein for DNA was determined using the following equation: P = Pf + (Pb – Pf) [M] / (Kd + [M]) where P is the measured polarization, Pf is the polarization of free DNA, Pb is the polarization of the completely bound DNA, Kd is the equilibrium dissociation constant, and M is the concentration of protein. Pb and Kd were determined by nonlinear least-squares analysis. At least three independent experimental measurements were averaged for each reported binding constant.

MtrR = target: T2, MtrR (Neisseria gonorrhoeae, UniProt P39897); test: Isothermal titration calorimetry, ligand binding to MtrR WT; conditions: equilibrium dissociation constant (Kd), MtrR WT, ITC, 25 °C, 1% MeOH
T2 construct: Hexa-histidine tag with TEV protease cleavage site (N, cleaved yes); made in house; host or cells: E. coli Rosetta Gami B(DE3) pLysS
T2 sequence (P39897 whole entry): as above

FA19-rpoH-lacZ = test: Gonococcal growth in liquid culture (GC broth) with hormones (Fig S7)
[2] = target: T3, MtrR binding to mtrCDE operator (21mer) (Neisseria gonorrhoeae, UniProt P39897); test: Fluorescence polarization based DNA binding assay, mtrCDE operator; conditions: mtrCDE 21mer + 125 µM steroid
T3 construct: Hexa-histidine tag with TEV protease cleavage site (N, cleaved yes); made in house; host or cells: E. coli Rosetta Gami B(DE3) pLysS
T3 sequence (P39897 whole entry): as above
Method: as §1

Compound: CC(=O)[C@H]1CC[C@H]2[C@@H]3CCC4=CC(=O)CC[C@]4(C)[C@H]3CC[C@]12C [Progesterone, progesterone]
- fluorescence polarization, MtrR titration ([1]; MtrR WT dimer 0.00 nM): 0.00 mP
- fluorescence polarization, MtrR titration ([1]; MtrR WT dimer 25.90 nM): 11.91 mP and 9.75 mP and 10.51 mP
- fluorescence polarization, MtrR titration ([1]; MtrR WT dimer 35.50 nM): 14.38 mP and 9.72 mP and 14.14 mP
- fluorescence polarization, MtrR titration ([1]; MtrR WT dimer 54.52 nM): 18.81 mP and 15.99 mP and 17.44 mP
- fluorescence polarization, MtrR titration ([1]; MtrR WT dimer 73.35 nM): 23.45 mP and 18.32 mP and 20.67 mP
- fluorescence polarization, MtrR titration ([1]; MtrR WT dimer 110.67 nM): 27.11 mP and 21.95 mP and 25.01 mP
- fluorescence polarization, MtrR titration ([1]; MtrR WT dimer 147.65 nM): 29.38 mP and 25.62 mP and 28.21 mP
- fluorescence polarization, MtrR titration ([1]; MtrR WT dimer 220.59 nM): 32.78 mP and 29.35 mP and 32.41 mP
- fluorescence polarization, MtrR titration ([1]; MtrR WT dimer 292.55 nM): 36.31 mP and 32.79 mP and 35.11 mP
- fluorescence polarization, MtrR titration ([1]; MtrR WT dimer 363.86 nM): 36.91 mP and 35.45 mP and 37.94 mP
- fluorescence polarization, MtrR titration ([1]; MtrR WT dimer 434.54 nM): 40.61 mP and 38.05 mP and 40.54 mP
- fluorescence polarization, MtrR titration ([1]; MtrR WT dimer 504.61 nM): 41.81 mP and 39.19 mP and 42.17 mP
- fluorescence polarization, MtrR titration ([1]; MtrR WT dimer 574.07 nM): 44.75 mP and 41.42 mP and 44.21 mP
- Kd (MtrR): 2.75 ± 0.7 µM
- growth curve reading after BLANKING (FA19-rpoH-lacZ; 0 hr, 0.1 µM): 0.013
- growth curve reading, raw replicates (FA19-rpoH-lacZ; 0 hr, 0.1 µM): 0.046
- growth curve reading after BLANKING (FA19-rpoH-lacZ; 0 hr, 1 µM): 0.013
- growth curve reading, raw replicates (FA19-rpoH-lacZ; 0 hr, 1 µM): 0.046
- growth curve reading after BLANKING (FA19-rpoH-lacZ; 0 hr, 10 µM): 0.013
- growth curve reading, raw replicates (FA19-rpoH-lacZ; 0 hr, 10 µM): 0.046
- growth curve reading after BLANKING (FA19-rpoH-lacZ; 0 hr, 25 µM): 0.013
- growth curve reading, raw replicates (FA19-rpoH-lacZ; 0 hr, 25 µM): 0.046
- growth curve reading after BLANKING (FA19-rpoH-lacZ; 0 hr, 50 µM): 0.013
- growth curve reading, raw replicates (FA19-rpoH-lacZ; 0 hr, 50 µM): 0.046
- growth curve reading after BLANKING (FA19-rpoH-lacZ; 1.18 hr, 0.1 µM): 0.018
- growth curve reading, raw replicates (FA19-rpoH-lacZ; 1.18 hr, 0.1 µM): 0.051 and 0.052
- growth curve reading after BLANKING (FA19-rpoH-lacZ; 1.18 hr, 1 µM): 0.020
- growth curve reading, raw replicates (FA19-rpoH-lacZ; 1.18 hr, 1 µM): 0.051 and 0.054
- growth curve reading after BLANKING (FA19-rpoH-lacZ; 1.18 hr, 10 µM): 0.019
- growth curve reading, raw replicates (FA19-rpoH-lacZ; 1.18 hr, 10 µM): 0.051 and 0.052
- growth curve reading after BLANKING (FA19-rpoH-lacZ; 1.18 hr, 25 µM): 0.018
- growth curve reading, raw replicates (FA19-rpoH-lacZ; 1.18 hr, 25 µM): 0.051 and 0.052
- growth curve reading after BLANKING (FA19-rpoH-lacZ; 1.18 hr, 50 µM): 0.017
- growth curve reading, raw replicates (FA19-rpoH-lacZ; 1.18 hr, 50 µM): 0.049 and 0.051
- growth curve reading after BLANKING (FA19-rpoH-lacZ; 2 hr, 0.1 µM): 0.029
- growth curve reading, raw replicates (FA19-rpoH-lacZ; 2 hr, 0.1 µM): 0.062
- growth curve reading after BLANKING (FA19-rpoH-lacZ; 2 hr, 1 µM): 0.031
- growth curve reading, raw replicates (FA19-rpoH-lacZ; 2 hr, 1 µM): 0.063 and 0.066
- growth curve reading after BLANKING (FA19-rpoH-lacZ; 2 hr, 10 µM): 0.029
- growth curve reading, raw replicates (FA19-rpoH-lacZ; 2 hr, 10 µM): 0.062
- growth curve reading after BLANKING (FA19-rpoH-lacZ; 2 hr, 25 µM): 0.030
- growth curve reading, raw replicates (FA19-rpoH-lacZ; 2 hr, 25 µM): 0.062 and 0.065
- growth curve reading after BLANKING (FA19-rpoH-lacZ; 2 hr, 50 µM): 0.026
- growth curve reading, raw replicates (FA19-rpoH-lacZ; 2 hr, 50 µM): 0.060 and 0.059
- growth curve reading after BLANKING (FA19-rpoH-lacZ; 3 hr, 0.1 µM): 0.038
- growth curve reading, raw replicates (FA19-rpoH-lacZ; 3 hr, 0.1 µM): 0.072 and 0.070
- growth curve reading after BLANKING (FA19-rpoH-lacZ; 3 hr, 1 µM): 0.046
- growth curve reading, raw replicates (FA19-rpoH-lacZ; 3 hr, 1 µM): 0.080 and 0.077
- growth curve reading after BLANKING (FA19-rpoH-lacZ; 3 hr, 10 µM): 0.037
- growth curve reading, raw replicates (FA19-rpoH-lacZ; 3 hr, 10 µM): 0.070
- growth curve reading after BLANKING (FA19-rpoH-lacZ; 3 hr, 25 µM): 0.046
- growth curve reading, raw replicates (FA19-rpoH-lacZ; 3 hr, 25 µM): 0.079
- growth curve reading after BLANKING (FA19-rpoH-lacZ; 3 hr, 50 µM): 0.033
- growth curve reading, raw replicates (FA19-rpoH-lacZ; 3 hr, 50 µM): 0.067 and 0.065
- growth curve reading after BLANKING (FA19-rpoH-lacZ; 4 hr, 0.1 µM): 0.053
- growth curve reading, raw replicates (FA19-rpoH-lacZ; 4 hr, 0.1 µM): 0.086
- growth curve reading after BLANKING (FA19-rpoH-lacZ; 4 hr, 1 µM): 0.062
- growth curve reading, raw replicates (FA19-rpoH-lacZ; 4 hr, 1 µM): 0.093 and 0.096
- growth curve reading after BLANKING (FA19-rpoH-lacZ; 4 hr, 10 µM): 0.050
- growth curve reading, raw replicates (FA19-rpoH-lacZ; 4 hr, 10 µM): 0.082 and 0.084
- growth curve reading after BLANKING (FA19-rpoH-lacZ; 4 hr, 25 µM): 0.062
- growth curve reading, raw replicates (FA19-rpoH-lacZ; 4 hr, 25 µM): 0.096 and 0.093
- growth curve reading after BLANKING (FA19-rpoH-lacZ; 4 hr, 50 µM): 0.044
- growth curve reading, raw replicates (FA19-rpoH-lacZ; 4 hr, 50 µM): 0.076 and 0.078
- growth curve reading after BLANKING (FA19-rpoH-lacZ; 5 hr, 0.1 µM): 0.071
- growth curve reading, raw replicates (FA19-rpoH-lacZ; 5 hr, 0.1 µM): 0.103 and 0.104
- growth curve reading after BLANKING (FA19-rpoH-lacZ; 5 hr, 1 µM): 0.079
- growth curve reading, raw replicates (FA19-rpoH-lacZ; 5 hr, 1 µM): 0.110 and 0.113
- growth curve reading after BLANKING (FA19-rpoH-lacZ; 5 hr, 10 µM): 0.065
- growth curve reading, raw replicates (FA19-rpoH-lacZ; 5 hr, 10 µM): 0.096 and 0.099
- growth curve reading after BLANKING (FA19-rpoH-lacZ; 5 hr, 25 µM): 0.078
- growth curve reading, raw replicates (FA19-rpoH-lacZ; 5 hr, 25 µM): 0.113 and 0.110
- growth curve reading after BLANKING (FA19-rpoH-lacZ; 5 hr, 50 µM): 0.056
- growth curve reading, raw replicates (FA19-rpoH-lacZ; 5 hr, 50 µM): 0.087 and 0.090
- growth curve reading after BLANKING (FA19-rpoH-lacZ; 5.95 hr, 0.1 µM): 0.089
- growth curve reading, raw replicates (FA19-rpoH-lacZ; 5.95 hr, 0.1 µM): 0.121 and 0.123
- growth curve reading after BLANKING (FA19-rpoH-lacZ; 5.95 hr, 1 µM): 0.097
- growth curve reading, raw replicates (FA19-rpoH-lacZ; 5.95 hr, 1 µM): 0.130
- growth curve reading after BLANKING (FA19-rpoH-lacZ; 5.95 hr, 10 µM): 0.080
- growth curve reading, raw replicates (FA19-rpoH-lacZ; 5.95 hr, 10 µM): 0.112 and 0.115
- growth curve reading after BLANKING (FA19-rpoH-lacZ; 5.95 hr, 25 µM): 0.095
- growth curve reading, raw replicates (FA19-rpoH-lacZ; 5.95 hr, 25 µM): 0.130 and 0.126
- growth curve reading after BLANKING (FA19-rpoH-lacZ; 5.95 hr, 50 µM): 0.070
- growth curve reading, raw replicates (FA19-rpoH-lacZ; 5.95 hr, 50 µM): 0.103 and 0.104
- growth curve reading after BLANKING (FA19-rpoH-lacZ; 6.82 hr, 0.1 µM): 0.100
- growth curve reading, raw replicates (FA19-rpoH-lacZ; 6.82 hr, 0.1 µM): 0.130
- growth curve reading after BLANKING (FA19-rpoH-lacZ; 6.82 hr, 1 µM): 0.112
- growth curve reading after BLANKING (FA19-rpoH-lacZ; 6.82 hr, 10 µM): 0.091
- growth curve reading, raw replicates (FA19-rpoH-lacZ; 6.82 hr, 10 µM): 0.126 and 0.123
- growth curve reading after BLANKING (FA19-rpoH-lacZ; 6.82 hr, 25 µM): 0.109
- growth curve reading after BLANKING (FA19-rpoH-lacZ; 6.82 hr, 50 µM): 0.083
- growth curve reading, raw replicates (FA19-rpoH-lacZ; 6.82 hr, 50 µM): 0.114 and 0.119
- fluorescence polarization, MtrR titration ([2]; MtrR WT dimer 0.00 nM): 0.00 mP
- fluorescence polarization, MtrR titration ([2]; MtrR WT dimer 3.83 nM): 3.14 mP
- fluorescence polarization, MtrR titration ([2]; MtrR WT dimer 8.85 nM): 6.47 mP
- fluorescence polarization, MtrR titration ([2]; MtrR WT dimer 11.32 nM): 7.37 mP and 3.83 mP and 6.23 mP
- fluorescence polarization, MtrR titration ([2]; MtrR WT dimer 16.21 nM): 8.61 mP and 4.53 mP and 7.86 mP
- fluorescence polarization, MtrR titration ([2]; MtrR WT dimer 35.50 nM): 11.01 mP and 7.99 mP and 10.09 mP
- fluorescence polarization, MtrR titration ([2]; MtrR WT dimer 73.35 nM): 14.94 mP and 12.16 mP and 13.46 mP
- fluorescence polarization, MtrR titration ([2]; MtrR WT dimer 110.67 nM): 19.14 mP and 15.56 mP and 17.23 mP
- fluorescence polarization, MtrR titration ([2]; MtrR WT dimer 147.65 nM): 23.64 mP and 19.79 mP and 21.69 mP
- fluorescence polarization, MtrR titration ([2]; MtrR WT dimer 220.59 nM): 29.74 mP and 25.09 mP and 27.23 mP
- fluorescence polarization, MtrR titration ([2]; MtrR WT dimer 292.55 nM): 32.91 mP and 28.39 mP and 31.63 mP
- fluorescence polarization, MtrR titration ([2]; MtrR WT dimer 363.86 nM): 35.71 mP and 31.19 mP and 34.99 mP
- fluorescence polarization, MtrR titration ([2]; MtrR WT dimer 434.54 nM): 39.37 mP and 32.93 mP and 37.49 mP
- fluorescence polarization, MtrR titration ([2]; MtrR WT dimer 504.61 nM): 40.97 mP and 36.33 mP and 40.13 mP
- fluorescence polarization, MtrR titration ([2]; MtrR WT dimer 574.07 nM): 43.64 mP and 38.96 mP and 42.59 mP
- fluorescence polarization, MtrR titration ([2]; MtrR WT dimer 711.46 nM): 46.37 mP and 42.63 mP and 45.23 mP
- fluorescence polarization, MtrR titration ([2]; MtrR WT dimer 848.00 nM): 49.37 mP and 45.06 mP and 48.53 mP
